From US8822494B2 (Pfizer Inc., priority 2012, dated 2014) come the findings set out here.

SMILES strings stand for the structures. Counter-ions that a name gives are not always drawn.

Test [1] has as its target T1, Human D1 (Homo sapiens (Human), UniProt P21728). As to the kind of experiment: Human D1 Receptor Binding Assay ([3H]-SCH23390 competition). Particulars: read-out: Human D1 Receptor Binding, Ki (μM); Geometric mean of 2-3 determinations; over-expressing LTK human cell lines, 0.5 nM [3H]-SCH23390, 30 min at 37° C.; footnote b = single determination, c = geometric mean of ≧4 determinations. As for the experimental part: D1 binding assays were performed using over-expressing LTK human cell lines. […] These ligand and tissue concentrations were used in time course studies to determine linearity and equilibrium conditions for binding. […] The pellet was resuspended in assay buffer [50 mM Tris (pH 7.4@ RT) containing 4 mM MgSO4 and 0.5 mM EDTA]. […] Non-specific binding was determined by radioligand binding in the presence of a saturating concentration of (+)-Butaclamol (10 μM), a D1 antagonist. After a 30 minute incubation period at 37° C., assay samples were rapidly filtered through Unifilter-96 GF/B PEI-coated filter plates and rinsed with 50 mM Tris buffer (pH 7.4 at 4° C.). […] Ki values were calculated according to the Cheng-Prusoff equation: […]

Test [2] addresses T1, Human D1. Kind of test: D1 cAMP HTRF Assay. In kind it is cell-based. Particulars: HEK293T/hD1#1 stable cell line, 30 min at room temperature; footnote a = geometric mean of ≧7 determinations. An excerpt:
This assay was used to determine the ability of a test compound to agonize (including partially agonize) D1. A Mab anti-cAMP labeled Cryptate visualizes the tracer. […] The signal, therefore, is inversely proportional to the concentration of cAMP in the sample.
The cAMP Dynamic kit was obtained from Cisbio International (Cisbio 62AM4PEJ). Multidrop Combi (Thermo Scientific) was used for assay additions. An EnVision (PerkinElmer) reader was used to read HTRF.
A HEK293T/hD1#1 stable cell line was constructed internally (Pfizer Ann Arbor).
Media was removed and cell pellet was re-suspended in PBS/[…] generating 2e5 cells/mL. […] Working solutions of cAMP-D2 and anti-cAMP-cryptate were prepared according to Cisbio instructions. […] The assay plate was incubated for 1 hour at room temperature. The assay plate was read on an EnVision plate reader using Cisbio recommended settings.
Data analysis was done using computer software. Percent effects were calculated from the compound controls. Ratio EC50 was determined using the raw ratio data from the EnVision reader. The cAMP standard curve was used in an analysis program to determine cAMP concentrations from raw ratio data. cAMP EC50 was determined using the calculated cAMP data.
A general note: In TR-FRET formats the signal depends on donor and acceptor labels being close together.

T1 sequence (P21728 whole entry): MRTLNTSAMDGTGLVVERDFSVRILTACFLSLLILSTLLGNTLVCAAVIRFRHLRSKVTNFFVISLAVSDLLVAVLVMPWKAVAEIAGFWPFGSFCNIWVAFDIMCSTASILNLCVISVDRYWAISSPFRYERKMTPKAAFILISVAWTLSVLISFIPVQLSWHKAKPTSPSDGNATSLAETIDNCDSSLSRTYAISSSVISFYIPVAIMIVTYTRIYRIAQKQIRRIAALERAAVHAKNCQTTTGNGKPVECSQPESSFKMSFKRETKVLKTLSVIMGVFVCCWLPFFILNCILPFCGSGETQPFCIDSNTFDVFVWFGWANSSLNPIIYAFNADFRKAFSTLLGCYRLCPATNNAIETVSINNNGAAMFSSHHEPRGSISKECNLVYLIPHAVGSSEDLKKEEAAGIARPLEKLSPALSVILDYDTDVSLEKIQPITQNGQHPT

As to `Cc1ncnc(N2CC(F)C2)c1-c1ccc(Oc2nccc3[nH]ccc23)cc1F` [Example 25, 4-{3-fluoro-4-[4-(3-fluoroazetidin-1-yl)-6-methylpyrimidin-5-yl]phenoxy}-1H-pyrrolo[3,2-c]pyridine], the Ki (usually a dissociation constant, usually derived from enzyme kinetics or from competition with a known ligand) in test [1] stood at 0.00509 µM. Also, in test [2], it took 0.156 µM to reach a half-maximal effect (EC50).

On to `Cc1cc(Oc2nccc3[nH]ccc23)ccc1-c1cn[nH]c(=O)c1C` [Example 28, 4-methyl-5-[2-methyl-4-(1H-pyrrolo[3,2-c]pyridin-4-yloxy)phenyl]pyridazin-3(2H)-one], for which the inhibitory constant (Ki) in test [1] worked out at 0.0357 µM. Also, a half-maximal response in test [2] (EC50) required 0.0549 µM.

With `Cc1cc(Oc2nccc3[nH]ccc23)ccc1-c1cc(=O)[nH]nc1C` [Example 29, 6-methyl-5-[2-methyl-4-(1H-pyrrolo[3,2-c]pyridin-4-yloxy)phenyl]pyridazin-3(2H)-one], in test [1], the inhibition constant (Ki) came to 0.0679 µM. Also, a half-maximal response in test [2] (EC50) required 0.119 µM.

Regarding `Cc1cc(Oc2nccc3[nH]ncc23)ccc1-n1c(C)nc2cnccc21` [Example 30, 4-[3-methyl-4-(2-methyl-1H-imidazo[4,5-c]pyridin-1-yl)phenoxy]-1H-pyrazolo[4,3-c]pyridine], in test [1], the Ki came out at 0.268 µM. Further, the concentration giving a half-maximal response (EC50) – broadly, the concentration needed to bring the measured effect to its halfway point – in test [2] was 2.76 µM.

As for `Cc1cc(Oc2nccc3[nH]ncc23)ccc1-c1cc(=O)[nH]nc1C` [Example 31, 6-methyl-5-[2-methyl-4-(1H-pyrazolo[4,3-c]pyridin-4-yloxy)phenyl]pyridazin-3(2H)-one], the Ki in test [1] worked out at 0.287 µM. In test [2], this molecule had a concentration for a half-maximal effect (EC50) of 0.548 µM.

With `Cc1ncnc(C)c1-c1ccc(Oc2nccc3[nH]ncc23)cc1F` [Example 32, 4-[4-(4,6-dimethylpyrimidin-5-yl)-3-fluorophenoxy]-1H-pyrazolo[4,3-c]pyridine], the Ki in test [1] was 0.0723 µM. The same molecule yielded an EC50 in test [2] of 0.903 µM.

As for `COc1cc(Oc2nccc3[nH]ncc23)ccc1-c1c(C)ncnc1C` [Example 33, 4-[4-(4,6-dimethylpyrimidin-5-yl)-3-methoxyphenoxy]-1H-pyrazolo[4,3-c]pyridine], in test [1], the Ki was 0.124 µM. Besides, a half-maximal response in test [2] (EC50) required 2.08 µM.

As for `Cc1ncnc(C)c1-c1ccc(Oc2nccc3[nH]ncc23)cc1C#N` [Example 34, 2-(4,6-dimethylpyrimidin-5-yl)-5-(1H-pyrazolo[4,3-c]pyridin-4-yloxy)benzonitrile], the Ki in test [1] came out at 0.391 µM. In test [2], this molecule had a concentration giving a half-maximal response (EC50) of 2.38 µM.

Regarding `Cc1ncnc(C#N)c1-c1ccc(Oc2nccc3[nH]ncc23)cc1F` [Example 35, 5-[2-fluoro-4-(1H-pyrazolo[4,3-c]pyridin-4-yloxy)phenyl]-6-methylpyrimidine-4-carbonitrile], in test [1], the Ki turned out to be 0.0696 µM. Further, in test [2], the concentration for a half-maximal effect (EC50) was 1.34 µM.

In the case of `Cc1cc(Oc2nccc3[nH]ncc23)c(F)cc1-c1c(C)ncnc1C` [Example 36, 4-[4-(4,6-dimethylpyrimidin-5-yl)-2-fluoro-5-methylphenoxy]-1H-pyrazolo[4,3-c]pyridine], the Ki in test [1] was 0.118 µM. Besides, the midpoint of the response in test [2], the EC50, lay at 0.733 µM.

As for `Cc1ncnc(C)c1-c1ccc(Oc2nccc3[nH]ncc23)cc1Cl` [Example 37, 4-[3-chloro-4-(4,6-dimethylpyrimidin-5-yl)phenoxy]-1H-pyrazolo[4,3-c]pyridine], in test [1], the Ki was found to be 0.0523 µM. In addition, the concentration giving a half-maximal response (EC50) in test [2] turned out to be 0.248 µM.

Consider `Cc1ncnc(C)c1-c1ccc(Oc2nccc3[nH]ncc23)cc1` [Example 38, 4-[4-(4,6-dimethylpyrimidin-5-yl)phenoxy]-1H-pyrazolo[4,3-c]pyridine], for which, in test [1], the Ki stood at 0.129 µM. In test [2], this molecule showed an EC50 of 2.52 µM.

For the molecule `Cc1n[nH]c(=O)c(C)c1-c1ccc(Oc2nccc3[nH]ncc23)cc1` [Example 41, 4,6-dimethyl-5-[4-(1H-pyrazolo[4,3-c]pyridin-4-yloxy)phenyl]pyridazin-3(2H)-one], the Ki in test [1] came out at 0.0409 µM. Moreover, in test [2], a half-maximal response (EC50) required 0.127 µM.

Consider `Cc1cc(Oc2nccc3[nH]ncc23)ccc1-c1cn[nH]c(=O)c1C` [Example 42, 4-methyl-5-[2-methyl-4-(1H-pyrazolo[4,3-c]pyridin-4-yloxy)phenyl]pyridazin-3(2H)-one, trifluoroacetate salt], for which, in test [1], the Ki is 0.123 µM. The molecule also gave a concentration for a half-maximal effect (EC50) in test [2] of 0.34 µM.

`Cc1c(-c2ccc(Oc3nccc4[nH]ncc34)cc2)n(C)c(=O)[nH]c1=O` [Example 43, 1,5-dimethyl-6-[4-(1H-pyrazolo[4,3-c]pyridin-4-yloxy)phenyl]pyrimidine-2,4(1H,3H)-dione]: in test [1], the Ki was 0.0175 µM. The molecule further registered an EC50 in test [2] of 0.0282 µM.

Regarding `Cc1cc(Oc2nccc3[nH]cc(C#N)c23)ccc1-c1c(C)ncnc1C` [Example 44, 4-[4-(4,6-dimethylpyrimidin-5-yl)-3-methylphenoxy]-1H-pyrrolo[3,2-c]pyridine-3-carbonitrile], the inhibitory constant (Ki) in test [1] turned out to be 0.0046 µM. In test [2], this molecule gave an EC50 of 0.0553 µM.

With `Cc1n[nH]c(=O)c(C)c1-c1ccc(Oc2nccc3[nH]nc(C)c23)cc1` [Example 45, 4,6-dimethyl-5-{4-[(3-methyl-1H-pyrazolo[4,3-c]pyridin-4-yl)oxy]phenyl}pyridazin-3(2H)-one], the Ki in test [1] amounted to 0.0103 µM. Further, the EC50 in test [2] was 0.0663 µM.

Regarding `Cc1cc2[nH]ncc2c(Oc2ccc(-c3c(C)n[nH]c(=O)c3C)cc2)n1` [Example 46, 4,6-dimethyl-5-{4-[(6-methyl-1H-pyrazolo[4,3-c]pyridin-4-yl)oxy]phenyl}pyridazin-3(2H)-one], in test [1], the Ki was 0.0247 µM. The molecule also registered an EC50 in test [2] of 0.0891 µM.

As for `COc1cnc(Oc2ccc(-c3c(C)n[nH]c(=O)c3C)cc2)c2cn[nH]c12` [Example 47, 5-{4-[(7-methoxy-1H-pyrazolo[4,3-c]pyridin-4-yl)oxy]phenyl}-4,6-dimethylpyridazin-3(2H)-one], the inhibitory constant (Ki) in test [1] turned out to be 0.695 µM. Also, the EC50 in test [2] amounted to 1.3 µM.
